{
  "source": "patent US20200055839A1",
  "about": "(priority 2017, published 2020)",
  "data": [
    {"test_system": "NL-RLuc virus", "test": "Inhibition of HIV replication (NL-RLuc virus, luciferase readout in MT-2 cells)", "type": "cell-based", "conditions": "Human immunodeficiency virus 1, MT2, 120 h, MT-2 cells infected with NL-RLuc virus, 5 days of incubation, 10% FBS, at least 2 experiments", "outline": "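EC50 derived via median effect equation from at least 2 experiments, using luciferase expression as virus-growth readout. Replication-competent NL-RLuc reporter virus (nef partly replaced by Renilla luciferase) infected MT-2 cells with serial compound dilutions; 5-day incubation in RPMI 1640 plus 10% FBS.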", "units": {"EC50": "nM"}, "values": [
      {"smiles": "Cc1ncc(-c2ncc(OCCc3ccc(F)cc3)cc2F)c(N2CCC(C)(C)CC2)c1[C@H](OC(C)(C)C)C(=O)O", "note": "[Example 233, (S)-2-(tert-Butoxy)-2-(4′-(4,4-dimethylpiperidin-1-yl)-3-fluoro-5-(4-fluorophenethoxy)-6′-methyl-[2, 3′-bipyridin]-5′-yl)acetic acid]", "EC50": 2},
      {"smiles": "CCCCCOc1ncc(-c2cnc(C)c([C@H](OC(C)(C)C)C(=O)O)c2N2CCC(C)(C)CC2)cc1F", "note": "[Example 407, (2S)-2-(tert-butoxy)-2-[4-(4,4-dimethylpiperidin-1-yl)-5′-fluoro-6-methyl-6′-(pentyloxy)-[3,3′-bipyridine]-5-yl]acetic acid]", "EC50": 4},
      {"smiles": "Cc1ncc(-c2ccc(NCC(C)C)nc2)c(N2CCC(C)(C)CC2)c1[C@H](OC(C)(C)C)C(=O)O", "note": "[Example 436, (S)-2-tert-Butoxy-2-(4-(4,4-dimethylpiperidin-1-yl)-6′-(isobutylamino)-6-methyl-3, 3′-bipyridin-5-yl)acetic acid]", "EC50": 7},
      {"smiles": "Cc1nc(N)c(-c2cc(F)c(OCCc3ccc(F)cc3)c(F)c2)c(N2CCC(C)(C)CC2)c1[C@H](OC(C)(C)C)C(=O)O", "note": "[Example 60, (S)-2-(6-Amino-5-(3,5-difluoro-4-(4-fluorophenethoxy)phenyl)-4-(4,4-dimethylpiperidin-1-yl)-2-methylpyridin-3-yl)-2-(tert-butoxy)acetic acid]", "EC50": 25},
      {"smiles": "CCCOc1ncc(-c2cnc(C)c([C@H](OC(C)(C)C)C(=O)O)c2N2CCC(C)(C)CC2)cc1F", "note": "[Example 389, (2S)-2-(tert-butoxy)-2-[4-(4,4-dimethylpiperidin-1-yl)-5′-fluoro-6-methyl-6′-propoxy-[3,3′-bipyridine]-5-yl]acetic acid]", "EC50": 3},
      {"smiles": "COc1cccc(CCOc2ccc(-c3cnc(C)c([C@H](OC(C)(C)C)C(=O)O)c3N3CCC(C)(C)CC3)nc2)c1", "note": "[Example 301, (2S)-2-(tert-butoxy)-2-[4′-(4,4-dimethylpiperidin-1-yl)-5-[2-(3-methoxyphenyl)ethoxy]-6′-methyl-[2,3′-bipyridine]-5′-yl]acetic acid]", "EC50": 1},
      {"smiles": "Cc1ncc(-c2cccnc2)c(N2CCC(C)(C)CC2)c1[C@H](OC(C)(C)C)C(=O)O", "note": "[Example 155, (2S)-2-(tert-Butoxy)-2-[4-(4,4-dimethylpiperidin-1-yl)-6-methyl-[3, 3′-bipyridine]-5-yl]acetic acid]", "EC50": 11},
      {"smiles": "COc1ccc(-c2c(CN3CCC4(CCC4)CC3)nc(C)c([C@H](OC(C)(C)C)C(=O)O)c2N2CCC(C)(C)CC2)cc1", "note": "[Example 192, (2S)-2-[6-({7-Azaspiro[3.5]nonan-7-yl}methyl)-4-(4,4-dimethylpiperidin-1-yl)-5-(4-methoxyphenyl)-2-methylpyridin-3-yl]-2-(tert-butoxy)acetic acid]", "EC50": 1},
      {"smiles": "COc1ccc(CCOc2ccc(-c3cnc(C)c([C@H](OC(C)(C)C)C(=O)O)c3N3CCC(C)(C)CC3)nc2)cc1C", "note": "[Example 291, (2S)-2-(tert-butoxy)-2-[4′-(4,4-dimethylpiperidin-1-yl)-5-[2-(4-methoxy-3-methylphenyl)ethoxy]-6′-methyl-[2,3′-bipyridine]-5′-yl]acetic acid]", "EC50": 2},
      {"smiles": "Cc1ncc(-c2ccc(OCc3ccccc3)cn2)c(N2CCC(C)(C)CC2)c1[C@H](OC(C)(C)C)C(=O)O", "note": "[Example 288, (S)-2-(5-(Benzyloxy)-4′-(4,4-dimethylpiperidin-1-yl)-6′-methyl-[2, 3′-bipyridin]-5′-yl)-2-(tert-butoxy)acetic acid]", "EC50": 1},
      {"smiles": "CC1(C)CCN(c2c(-c3ccc(OCCc4ccc(F)cc4)cc3)cnc(N3CCCC3)c2[C@H](OC(C)(C)C)C(=O)O)CC1", "note": "[Example 202, (S)-2-(tert-Butoxy)-2-(4-(4,4-dimethylpiperidin-1-yl)-5-(4-(4-fluorophenethoxy)phenyl)-2-(pyrrolidin-1-yl)pyridin-3-yl)acetic acid]", "EC50": 75}
    ]}
  ]
}
